Source: patent publication US10208007B2, “Use of strigolactones and strigolactone analogs for treating proliferative conditions” (The State of Israel, Ministry of Agriculture & Rural …, priority 2011, dated 2019)

How the values were obtained:
[1] = system: DU145; experiment: Cell cycle analysis with strigolactone removal; type: cell-based, human; details: for G2/M fraction: 24 hours, from 18%; for G2/M fraction 48 hours following removal: vehicle control 28.5%
Protocol: Adherent cells were trypsinyzed, washed twice with PBS and filtered through a […] cell sieve. DNA content was assessed by flow cytometry. Cells were seeded at densities of 1.5×10^5 cells (MDA-MB-231, MDA-MB-436), or 4×10^5 cells (MCF-7 and MCF10A), or 2×10^5 cells (SW480, HT-29), or 5×10^5 cells (HCT116), per well in DMEM with 10% FBS in 6-well plate culture dishes. […] After 48 hours, cells were washed twice with PBS (pH 7.4), centrifuged at 360 g for 10 minutes at 4° C., and fixed in chilled ethanol (70%; v/v in PBS) with gentle vortex mixing. To determine their DNA contents, the cells were stained with 40 μg/ml propidium iodide (hereinafter PI) and analyzed using a FACSCalibur flow cytometer and CellQuest analysis software (Becton Dickinson, San Jose, Calif.). Where phosphoHistone-H3 staining was carried out, cells were incubated with polyclonal antibody against phosphoHistone H3 and then with secondary Goat anti-rabbit IgG-conjugated to FITC prior to PI staining.
To determine whether the strigolactone analogs induced G2 arrest, is also reversible upon strigolactone removal, DU145 cells were treated with MEB-55 for 24 hours, washed twice in PBS and then over-layed with fresh growth media minus MEB-55 and incubated for a further 48 hours (FIG. 17G).

[2] = system: GRIM REAPER (GRI); experiment: Gene transcription level by quantitative PCR: GRI; type: in vivo, Arabidopsis thaliana
Protocol: Seeds of homozygous lines of Arabidopsis thaliana wild type (WT; Columbia; Col-0) and max2-1 mutant (http://abrc.osu.edu/) were surface-sterilized and germinated on 1/2 Murashige and Skoog (MS) plates supplemented with 1% sucrose and solidified with 0.7% agar. Plates were incubated vertically in the dark at 4° C. for two days to synchronize germination. Three days after germination, seedlings were gently transferred using forceps to 1/2 MS plates containing various concentrations of GR-24 as a mixture of four diastereomers: (±)-GR-24 and (±)-2'-epi-GR-24. The root tip of the transferred seedling was marked on the plates. The plates remained unsealed to prevent accumulation of gases (e.g., ethylene), and were positioned in an upright 45° position, and incubated at 22° C. with a light intensity of […] m-2 s-1 provided by white fluorescent tubes and under a photoperiod of 16 hours exposure to light/8 hours in the dark for 6-12 days. GR-24 treatments were conducted at concentrations ranging from 2.7×10^-6 to 13.5×10^-6 M. […] GR-24, ST-357 and ST-362 were initially dissolved in acetone to give a 4.5 mM, 10 μM and 10 μM solutions, respectively, which were then further diluted with double-distilled sterile water (DDW). […] In each of the experiments, non-treated roots were compared to the respective acetone control. Where no difference was observed between the various controls, non-treated roots are shown. Where differences were recorded between non-treated and acetone controls, the comparison was made between GR-24, ST-357 and ST-362-treated and acetone-treated roots. RNA was extracted from seedlings grown and treated as described in Example 1. Quantitative PCR was performed by amplifying fragments of genes of interest (Tables 6 & 7). Arabidopsis 15S ribosomal RNA (GenBank accession no. AT1G04270.1) served as the reference gene for the amount of RNA, and was amplified using specific primers (forward) [NT] and (reverse) [NT]. The experiment was performed in 5-6 biological replicates; each replicate included 8 plants, on which 3 technical repeats were performed. Means and standard error were determined from all biological replicates. Primers were designed using PrimerQuest software (Integrated DNA Technologies). RNA was extracted using Trizol (Invitrogen, Carlsbad, Calif., USA) using the manufacturer's protocol. 1 μg RNA was reverse-transcribed in a total volume of 20 μl using the Superscript First strand cDNA synthesis kit (Invitrogen). […] The expression of each target gene was normalized to the expression of GAPDH RNA and is presented as the ratio of the target gene to GAPDH RNA, expressed as 2-ΔCt, where Ct is the threshold cycle and ΔCt=[NT] […]

[3] = system: MCF-7 secondary mammospheres; experiment: cells; type: cell-based; details: Homo sapiens, MCF7, 120 h
Protocol: Adherent cells were gently trypsinized, (0.05% trypsin/EDTA) washed twice in PBS and filtered through a […] cell sieve to obtain a single cell suspensions. Cells were diluted to a concentration of 10,000 cell/ml in serum-free phenol-red free MEBM (MEGM Bulletkit, Lonza) supplemented with 5 μg/ml bovine insulin, 20 ng/ml recombinant epidermal growth factor, 20 ng/ml basic fibroblast growth factor (Gibco), 1×B27 supplement, 0.5 μg/ml hydrocortisone (MEGM Bulletkit, Lonza). For MDA-MB-231 mammosphere cultures serum-free phenol red-free CnT-27 medium with growth additives (CellnTEC Advanced cell systems, Bern, Switzerland) was used as previously described. 0.1 ml was seeded per well of a Ultralow attachment 96 well plates. The following day the indicated doses of GR-24 (ppm) or vehicle alone (0.6% acetone f/c) were added. Media was replenished every 3-4 days. Self-renewal capacity of the mammospheres was determined by re-plating and producing further generations of mammospheres. Secondary mammospheres were cultivated by dissociation (trypsinization with gently vortexing) of 10-14 day old primary mammospheres. Single cell suspensions were obtained as described above.
Mammosphere viability was assessed by XTT assay (ATCC). 5 days after addition of the indicated concentrations of GR-24, cell viability was determined. […] To further investigate GR-24 induced inhibition of mammosphere formation, the expression of breast stem cells markers were examined.

[4] = system: breast cancer cells both luminal (estrogen receptor positive) and basal (estrogen receptor negative); experiment: IC50 by number of cells per well versus control cultures; type: cell-based
Protocol: The IC50 values are defined herein as that concentration of active ingredient at which the number of cells per well at the end of the incubation period is only 50% of the number of cells in the control cultures. The IC50 values thus determined are, for the compounds of formula II, approximately from 0.1 to 50 μmoliliter.

[5] = read-out: Mammosphere viability

Row | Compound | G2/M fraction ([1]; DU145, 5 ppm) [%] | G2/M fraction 48 hours following removal ([1]; DU145, 5 ppm) [%] | G2/M fraction ([1]; DU145, 10 ppm) [%] | G2/M fraction 48 hours following removal ([1]; DU145, 10 ppm) [%] | GRI gene expression induction ([2]; 3 μM) [fold] | GRI transcription level versus controls ([2]; WT seedlings, 3 μM) | GRI gene transcription ([2]; max2-1 mutants) | GRI transcription level versus controls ([2]; max2-1 seedlings, 3 μM) | viability at 2.5 ppm [3, 5] [%] | viability at 5 ppm [3, 5] [%] | cytotoxicity at 5 ppm ([3]; read-out: Reduction of viability) [%] | IC50 value [4]
1 | CC1=CC(O/C=C2\Cc3c(n(C)c4cc(-c5cccs5)ccc34)C2=O)OC1=O (racemic) [MEB-55, (±) 2E-4-methyl-2-(4-methyl-5-oxo-2,5-dihydrofuran-2-yloxymethylene)-6-thiophen-2-yl-1,4-dihydro-2H-cyclopenta[b]indol-3-one] | 46 | 29 | 50 | 29 | – | – | – | – | – | – | – | –
2 | CC1=C[C@H](O/C=C2/C(=O)O[C@@H]3c4ccccc4C[C@H]23)OC1=O (relative stereo) [GR-24, (3aR*,8bS*,E)-3-(((R*)-4-methyl-5-oxo-2,5-dihydrofuran-2-yloxy)methylene)-3,3a,4,8b-tetrahydro-2H-indeno[1,2-b]furan-2-one] | – | – | – | – | 2.3 | 33.008 ± 7.121 | not induced | 0.214 ± 0.193 | 68.6 | 16.4 | ~80 | in the range of micromolar concentration
